Data as given in patent publication US20250346584A1, “NOVEL KAPPA OPIOID LIGANDS” (The Scripps Research Institute, priority 2012, published 2025).

Target: kappa opioid receptor (OPRK1) (Homo sapiens (Human), UniProt P41145)
Assay: OPRK1 antagonist assay (b-arrestin-2-TEV / b-lactamase reporter cell line, EC80 U-50488 challenge)
Type: cell-based
Conditions: for IC50: read-out: IC50 nM (% inhib if other than 50%), antagonist mode vs EC80 U-50488, NA = not active at concentrations up to 10 μM

Sequence of kappa opioid receptor (OPRK1) (P41145 whole entry): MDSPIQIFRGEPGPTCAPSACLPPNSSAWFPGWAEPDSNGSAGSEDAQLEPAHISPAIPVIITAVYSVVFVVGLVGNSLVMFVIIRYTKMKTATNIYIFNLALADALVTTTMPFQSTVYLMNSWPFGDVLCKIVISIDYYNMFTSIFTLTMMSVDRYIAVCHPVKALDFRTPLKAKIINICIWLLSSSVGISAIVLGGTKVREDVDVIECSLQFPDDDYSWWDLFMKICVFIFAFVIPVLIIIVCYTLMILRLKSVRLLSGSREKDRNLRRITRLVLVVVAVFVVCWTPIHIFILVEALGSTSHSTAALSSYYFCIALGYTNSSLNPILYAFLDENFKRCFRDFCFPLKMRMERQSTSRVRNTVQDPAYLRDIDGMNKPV

Row | Structure (SMILES) | IC50 | % inhib if other than 50% (% inhibition at the concentration given)
1 | Cc1ccc2nc(N3CCC(NC4CCOC4)CC3)c(-c3nc(C)no3)cc2c1 (centres unmarked) [compound 254] | 8 nM | –
2 | COC1CN(c2nnc(C)cc2C(=O)OC(C)C)CCC1NCC(C)C (centres unmarked) [compound 408] | 57 nM | –
3 | Cc1noc(-c2cc(C)c(C)nc2N2CCC(NC3CCCCC3)C(CO)C2)n1 (centres unmarked) [compound 164] | 62 nM | –
4 | Cc1nc(-c2cc3ccc(F)c(C)c3nc2N2CCC(NC3CCCC3)CC2)no1 [compound 504] | 45 nM | –
5 | COC1CN(c2nc3c(cc2-c2nc(C)no2)CCC3)CCC1NC1CCCCC1 (centres unmarked) [compound 210] | 72 nM | –
6 | Cc1nc(-c2cc3cc(F)ccc3nc2N2CCC(NC3CCOCC3)CC2)no1 [compound 469] | 440 nM | –
7 | COC1CN(c2nc3ccccc3cc2-c2nc(C)no2)CCC1NC1CCCCC1 (centres unmarked) [compound 176] | 28 nM | –
8 | Cc1noc(-c2cc3c(F)cccc3nc2N2CCC(NCC(C)C)CC2)n1 [compound 526] | 49 nM | –
9 | CCOC(=O)c1cccnc1N1CCC(NC2CCCCC2)C1 (centres unmarked) [compound 25] | 1200 nM | –
10 | CCc1noc(-c2cc3cc(C)ccc3nc2N2CCC(NC3CCCCC3)C(CO)C2)n1 (centres unmarked) [compound 284] | 20 nM | –
11 | O=Cc1cc(Br)cnc1N1CC[C@@H](NC2CCCCC2)[C@H](O)C1 [compound 129] | 799 nM | –
12 | Cc1nc(-c2cc3ccc(F)cc3nc2N2CCC(NC3CCCC3)CC2)no1 [compound 481] | 10 nM | –
13 | COC(=O)c1cc(Cl)cnc1N1CCC(NC2CCCCC2)C(O)C1 (centres unmarked) [compound 43] | 52 nM | –
14 | COC1CN(c2nc3ccc(C)cc3cc2C(=O)N(C)C)CCC1NC1CCCCC1 (centres unmarked) [compound 279] | 96 nM | –
15 | CO[C@H]1CN(c2nc3c(C)c(F)ccc3cc2-c2nc(C)no2)CC[C@H]1NC1CCCCC1 [compound 487] | 15 nM | –
16 | CO[C@H]1CN(c2nc3cc(F)ccc3cc2-c2nc(C)no2)CC[C@H]1NC1CCCCC1 [compound 508] | 5 nM | –
17 | Cc1noc(-c2cc3ccccc3nc2N2CC[C@@H](NC3CCCCC3)[C@H](O)C2)n1 [compound 172] | 22 nM | –

Row | Structure (SMILES) | IC50 | % inhib if other than 50% (% inhibition at the concentration given)
18 | COC1CN(c2nc3ccccc3cc2-c2nc(C)no2)CCC1NCC(C)C (centres unmarked) [compound 374] | 45 nM | –
19 | COC(=O)c1cccnc1N1CCC(NC2CCCCC2OC)C(O)C1 (centres unmarked) [compound 54] | 559 nM | –
20 | Cc1nc(-c2cc3ccc(F)c(C)c3nc2N2CCC(NCC(C)C)CC2)no1 [compound 505] | 126 nM | –
21 | CC(=O)c1cc(C)cnc1N1CC[C@@H](NC2CCCCC2)[C@H](O)C1 [C60] | 14000 nM | –
22 | Cc1ccc2nc(N3CCC(NC4CCCC4)CC3)c(-c3ccncn3)cc2c1 [compound 533] | 263 nM | –
23 | CCc1cnc(N2CCC(NC3CCCCC3)C(O)C2)c(C(=O)OC)c1 (centres unmarked) [compound 133] | 272 nM | –
24 | COC1CN(c2ncc(Br)cc2-c2nc(C)no2)CCC1NC1CCCCC1 (centres unmarked) [compound 143] | 100 nM | –
25 | COC(=O)c1cc(Br)cnc1N1CCC(NC2CCCCC2)C(F)C1 (centres unmarked) [compound 52] | 3400 nM | –
26 | CCOC(=O)c1cc2cc(C)ccc2nc1N1CCC(NC2CCOCC2)CC1 [compound 289] | 184 nM | –
27 | CCCC(C)NC1CCN(c2nc3ccc(C)cc3cc2-c2noc(C)n2)CC1 (centres unmarked) [compound 453] | 85 nM | –
28 | CCc1noc(-c2cc3cc(C)ccc3nc2N2CCC(NC3CCCCCC3)C(OC)C2)n1 (centres unmarked) [compound 313] | 1.5 nM | –
29 | COC1CN(c2nc3c(C)cccc3cc2-c2nc(C)no2)CCC1NC1CCCCC1 (centres unmarked) [compound 276] | 18 nM | –
30 | COC(=O)c1cc(C)nnc1N1CC[C@@H](NC2CCCCC2)[C@H](O)C1 [compound 166] | 32 nM | –
31 | Cc1cc(-c2nc(C3CC3)no2)c(N2CCC(NCC(C)C)CC2)nn1 [compound 509] | 30 nM | –
32 | CO[C@H]1CN(c2nc3ccc(C)cc3nc2-c2nc(C)no2)CC[C@H]1NC1CCCCC1 [compound 519] | 95 nM | –
33 | Cc1noc(-c2cc3c(F)cccc3nc2N2CCC(NC3CCOCC3)CC2)n1 [compound 477] | 42 nM | –
34 | O=C(O)c1cc(Br)cnc1N1CCC(NC2CCCCC2)CC1 [compound 34] | 5200 nM | 85%
